{"source": "patent US8263638B2", "about": "“Dosing regimens for ion channel modulating compounds” (priority 2004, dated 2012)", "tested_on": "Human Cardiac Electrophysiology", "test": "Electrophysiological effects of two intravenous doses in patients (Example 1)", "type": "in vivo", "design": "AH interval / HV interval / VERP / AERP / QT / QRS / Atrial MAP50: unit not given here", "details": "for Diastolic BP / HEART RATE / Systolic BP: T = 45 min", "experimental": "This example provides the results of a study conducted to determine the electrophysiological effects of two intravenous doses of COMPOUND A. Patients in the study required electrophysiologic studies (with or without radiofrequency ablation) and were from 18 to 75 years of age. Following the study and ablation (if applicable), the atrial MAP catheter was positioned and the following electrophysiological measures were performed: • 1. Intervals reflecting conduction: […] Intervals reflecting repolarization/refractoriness: • a). […] Heart rate, brachial (cuff) blood pressure. Drug Administration: • 1. […] Twenty five minutes after the start of intravenous drug infusion (15 minutes after the end of loading and start of maintenance infusion), all electrophysiological measures were repeated.", "data": [{"smiles": "COc1ccc(CCO[C@@H]2CCCC[C@H]2N2CC[C@@H](O)C2)cc1OC.Cl", "note": "[COMPOUND A, (1R,2R)-2-[(3R)-hydroxypyrrolidinyl]-1-(3,4-dimethoxyphenethoxy)cyclohexane monohydrochloride]", "values": [{"measurement": "AERP 400 Ave Δ", "setting": "Dose Level 1", "result": "3.3 ± 5.4", "unit": "%"}, {"measurement": "AERP 400 Ave Δ (Change from Baseline)", "setting": "Dose Level 1", "result": "5.0 ± 9.0", "unit": "ms"}, {"measurement": "SNRT (A1 400)", "setting": "Dose Level 1", "result": "1114.4 ± 227.4", "unit": "ms"}, {"measurement": "SNRT (A1 600)", "setting": "Dose Level 1", "result": "1157.8 ± 238.3", "unit": "ms"}, {"measurement": "Wenckebach Cycle Length", "setting": "Dose Level 1", "result": "388.1 ± 94.4", "unit": "ms"}, {"measurement": "Diastolic BP", "setting": "Dose Level 1, 2 mg/kg", "result": "84 ± 12", "unit": "mm Hg"}, {"measurement": "HEART RATE", "setting": "Dose Level 1, 2 mg/kg", "result": "78 ± 11", "unit": "bpm"}, {"measurement": "Systolic BP", "setting": "Dose Level 1, 2 mg/kg", "result": "135 ± 15", "unit": "mm Hg"}, {"measurement": "AERP", "setting": "Dose Level 1, 300 msec", "result": "180.5 ± 15.5"}, {"measurement": "AERP", "setting": "Dose Level 1, 400 msec", "result": "195.0 ± 23.8"}, {"measurement": "VERP", "setting": "Dose Level 1, 400 msec", "result": "226.7 ± 16.4"}, {"measurement": "AH interval", "setting": "Dose Level 1, 400 msec pacing", "result": "134.2 ± 69.2"}, {"measurement": "HV interval", "setting": "Dose Level 1, 400 msec pacing", "result": "52.5 ± 13.6"}, {"measurement": "PA interval", "setting": "Dose Level 1, 400 msec pacing", "result": "61.8 ± 30.2"}, {"measurement": "PR interval", "setting": "Dose Level 1, 400 msec pacing", "result": "239.2 ± 76.7"}, {"measurement": "AERP", "setting": "Dose Level 1, 600 msec", "result": "219.5 ± 32.2"}, {"measurement": "VERP", "setting": "Dose Level 1, 600 msec", "result": "247.8 ± 22.0"}, {"measurement": "AH interval", "setting": "Dose Level 1, 600 msec pacing", "result": "113.8 ± 29.9"}, {"measurement": "HV interval", "setting": "Dose Level 1, 600 msec pacing", "result": "50.1 ± 12.6"}, {"measurement": "PA interval", "setting": "Dose Level 1, 600 msec pacing", "result": "64.0 ± 22.4"}, {"measurement": "PR interval", "setting": "Dose Level 1, 600 msec pacing", "result": "227.7 ± 45.3"}, {"measurement": "Atrial MAP50", "setting": "Dose Level 1, A1 200 msec", "result": "116.4 ± 15.4"}, {"measurement": "Atrial MAP50", "setting": "Dose Level 1, A1 250 msec", "result": "134.2 ± 18.4"}, {"measurement": "Atrial MAP50", "setting": "Dose Level 1, A1 300 msec", "result": "139.5 ± 20.4"}, {"measurement": "Atrial MAP50", "setting": "Dose Level 1, A1 400 msec", "result": "152.6 ± 19.7"}, {"measurement": "QRS", "setting": "Dose Level 1, A1 400 msec", "result": "87.0 ± 6.6"}, {"measurement": "QT", "setting": "Dose Level 1, A1 400 msec", "result": "325.4 ± 9.0"}, {"measurement": "Atrial MAP50", "setting": "Dose Level 1, A1 600 msec", "result": "172.8 ± 31.9"}, {"measurement": "QRS", "setting": "Dose Level 1, A1 600 msec", "result": "89 ± 9"}, {"measurement": "QT", "setting": "Dose Level 1, A1 600 msec", "result": "363 ± 27"}, {"measurement": "QRS Ave Δ", "setting": "Dose Level 1, V1 400", "result": "7.6 ± 11.5", "unit": "%"}, {"measurement": "QRS", "setting": "Dose Level 1, V1 400 msec", "result": "160.5 ± 23.0"}, {"measurement": "QT", "setting": "Dose Level 1, V1 400 msec", "result": "381.5 ± 25.2"}, {"measurement": "QRS", "setting": "Dose Level 1, V1 600 msec", "result": "169 ± 24"}, {"measurement": "QT", "setting": "Dose Level 1, V1 600 msec", "result": "433 ± 30"}, {"measurement": "AERP 400 Ave Δ", "setting": "Dose Level 2", "result": "14.7 ± 11.5", "unit": "%"}, {"measurement": "AERP 400 Ave Δ (Change from Baseline)", "setting": "Dose Level 2", "result": "24.4 ± 17.8", "unit": "ms"}, {"measurement": "AERP 600 Ave Δ", "setting": "Dose Level 2", "result": "16.9 ± 9.0", "unit": "%"}, {"measurement": "SNRT (A1 400)", "setting": "Dose Level 2", "result": "1047.1 ± 212.2", "unit": "ms"}, {"measurement": "SNRT (A1 600)", "setting": "Dose Level 2", "result": "1033.3 ± 247.8", "unit": "ms"}, {"measurement": "Wenckebach Cycle Length", "setting": "Dose Level 2", "result": "366.9 ± 53.7", "unit": "ms"}, {"measurement": "Diastolic BP", "setting": "Dose Level 2, 4 mg/kg", "result": "75 ± 9", "unit": "mm Hg"}, {"measurement": "HEART RATE", "setting": "Dose Level 2, 4 mg/kg", "result": "91 ± 19", "unit": "bpm"}, {"measurement": "Systolic BP", "setting": "Dose Level 2, 4 mg/kg", "result": "126 ± 15", "unit": "mm Hg"}, {"measurement": "AERP", "setting": "Dose Level 2, 300 msec", "result": "192.8 ± 20.2"}, {"measurement": "AERP", "setting": "Dose Level 2, 400 msec", "result": "206.7 ± 25.6"}, {"measurement": "VERP", "setting": "Dose Level 2, 400 msec", "result": "227.5 ± 16.3"}, {"measurement": "AH interval", "setting": "Dose Level 2, 400 msec pacing", "result": "147.0 ± 67.6"}, {"measurement": "HV interval", "setting": "Dose Level 2, 400 msec pacing", "result": "50.2 ± 8.4"}, {"measurement": "PA interval", "setting": "Dose Level 2, 400 msec pacing", "result": "75.8 ± 24.4"}, {"measurement": "PR interval", "setting": "Dose Level 2, 400 msec pacing", "result": "261.2 ± 60.4"}, {"measurement": "AERP", "setting": "Dose Level 2, 600 msec", "result": "227.9 ± 22.5"}, {"measurement": "VERP", "setting": "Dose Level 2, 600 msec", "result": "261.7 ± 16.3"}, {"measurement": "AH interval", "setting": "Dose Level 2, 600 msec pacing", "result": "101.7 ± 21.5"}, {"measurement": "HV interval", "setting": "Dose Level 2, 600 msec pacing", "result": "50.9 ± 7.0"}, {"measurement": "PA interval", "setting": "Dose Level 2, 600 msec pacing", "result": "69.1 ± 21.5"}, {"measurement": "PR interval", "setting": "Dose Level 2, 600 msec pacing", "result": "224.6 ± 18.8"}, {"measurement": "Atrial MAP50", "setting": "Dose Level 2, A1 200 msec", "result": 124.0}, {"measurement": "Atrial MAP50", "setting": "Dose Level 2, A1 250 msec", "result": "130.0 ± 14.5"}, {"measurement": "Atrial MAP50", "setting": "Dose Level 2, A1 300 msec", "result": "135.6 ± 20.4"}, {"measurement": "Atrial MAP50", "setting": "Dose Level 2, A1 400 msec", "result": "143.7 ± 25.2"}, {"measurement": "QRS", "setting": "Dose Level 2, A1 400 msec", "result": "86.4 ± 9.0"}, {"measurement": "QT", "setting": "Dose Level 2, A1 400 msec", "result": "336.7 ± 27.8"}, {"measurement": "Atrial MAP50", "setting": "Dose Level 2, A1 600 msec", "result": "165.5 ± 33.3"}, {"measurement": "QRS", "setting": "Dose Level 2, A1 600 msec", "result": "89 ± 8"}, {"measurement": "QT", "setting": "Dose Level 2, A1 600 msec", "result": "364 ± 20"}, {"measurement": "QRS", "setting": "Dose Level 2, V1 400 msec", "result": "157.3 ± 22.5"}, {"measurement": "QT", "setting": "Dose Level 2, V1 400 msec", "result": "376.3 ± 32.5"}, {"measurement": "QRS", "setting": "Dose Level 2, V1 600 msec", "result": "157 ± 15"}, {"measurement": "QT", "setting": "Dose Level 2, V1 600 msec", "result": "412 ± 30"}, {"measurement": "effect on ventricular refractoriness, repolarization or conduction", "setting": "at the doses studied", "result": "no significant effect"}, {"measurement": "conduction effect in the AV node, His Purkinje, and ventricular tissue", "setting": "conclusion of study", "result": "small but significant conduction slowing effect"}, {"measurement": "effect on atrial refractory periods", "setting": "conclusion of study", "result": "dose-dependently prolongs"}, {"measurement": "patients with a metallic taste in mouth", "setting": "n=19, both dose levels", "result": "three"}, {"measurement": "patients with a transient tingling sensation", "setting": "n=19, both dose levels", "result": "four"}, {"measurement": "patients with numbness in tongue", "setting": "n=19, both dose levels", "result": "one"}, {"measurement": "patients with transient hypotension", "setting": "n=19, both dose levels", "result": "one"}]}]}
